Patent US20240390356A1, “HALOPERIDOL FOR USE IN THE TREATMENT OF SPINAL MUSCULAR ATROPHY” (UNIVERSITAT DE VALÈNCIA, priority 2021, published 2024)
“And” between values parts separate entries of the source, which are not always exact repeats. Equal values may be shown once.

How the values were obtained:
[1] = test system: SMN2 Δ7 transcript; test: qPCR quantification of SMN2 without exon 7 (Δ7) transcript in SMA fibroblasts; assay type: cell-based, human; design: key: relative expression (2^-ΔΔCt), normalized to reference gene; conditions: 48 hours, GM03813 fibroblasts, normalized to GAPDH, each of 3 samples
Procedure: (§1) Fibroblasts derived from SMA patients (GM03813; Coriell Cell Repositories) were grown at 37° C. in cell culture bottles with Dulbecco's Modified Eagle Medium (DMEM; Gibco) and […] glucose. The medium was supplemented with penicillin (100 U/ml) and streptomycin ([…]) [1% P/S; Gibco] and 10% inactivated fetal bovine serum (FBS; Gibco).
(§2) For RNA extraction 400,000 GM03813 fibroblasts were seeded in 60 mm culture dishes in 4 ml of supplemented DMEM medium. The following day the medium was changed, and the candidate compound was added at its maximum non-toxic concentration. The cells were incubated for 48 hours and then washed with 1× PBS and collected in sterile 1.5 ml tubes. The same was done for the evaluation of the effect of haloperidol on the level of SMN protein (example 2) with the difference that 1,000,000 fibroblasts were used in a 100 mm cell culture plate and that the cells were collected after […] with a RIPA protein extraction buffer supplemented with a protease inhibitor cocktail (cOmplete; Roche).
(§3) Extraction of RNA from cells was carried out with ReliaPrep™ RNA Cell Miniprep System (Promega), following the manufacturer's instructions. […] RNA concentration and salt contamination were measured with the NanoDrop spectrophotometer (ThermoFisher). The samples were stored at −80° C. […] of total RNA was retrotranscribed using SuperScript III retrotranscriptase (Invitrogen) following the manufacturer's instructions. Genomic DNA contamination was monitored in the RNA samples without the addition of retrotranscriptase.
(§4) For the quantification of the SMN2 full length (FL) and SMN2 without exon 7 (Δ7) transcripts, qPCR Probe Mix (Solis Biodyne) was used. The reaction was carried out in a multiplex manner, in which the signal from the SMN2 and GAPDH probe was read in a single reaction. 10 ng of cDNA was used as a standard and the concentration of both probes was 250 nM.
(§5) Primer sets for detection of SMN2 FL or Δ7 isoforms were used at a final concentration of 500 nM while the concentration of the primer set used for GAPDH was 150 nM. All reactions were carried out using a Step-One Real-Time PCR thermocycler (Applied Biosystems). In all cases, the experiment included 3 biological samples and three technical replicates for each sample. Expression levels were normalized to the reference gene using a 2-^ΔΔCt method. Primers were obtained from Naryshkin, N. A. et al. Science (2014) 345, 688-693.
(§6) The selected SMA fibroblast line has 3 copies of the SMN2 gene and homozygous deletion of Ex7-Ex8 in SMN1 and therefore only SMN2 gene transcripts were measured. The conditions for cell cultures and extraction protocols are described in Example 1.

[2] = test system: myoblasts derived from SMA type II patients (KM1150SMAII7PV); test: Fusion index of immortalized myoblasts derived from SMA type II patients; assay type: cell-based, human; conditions: 72 h, healthy myoblasts about 68%, patient myoblasts 50%
Procedure: Fusion index of immortalized myoblasts derived from patients with SMA type II. […] Healthy (control; abbreviated as CON) and solvent-treated 25 SMA myoblasts (0.5% DMSO) were used to establish a difference in the differentiation process. Risdiplam at 1 μM was used as a positive control. Nuclei were labeled with 4′,6-diamidino-2-phenylindole (DAPI) and myoblasts were detected using an anti-Desmin antibody. Multinuclear myotubes are marked with white arrows. The fusion index of DMSO-treated healthy and SMA differentiated myoblasts, and compound-treated SMA myoblasts, was calculated. Data were collected after analysis of at least 100 cells and statistics were calculated using Student's t-test (*p<0.05, **p<0.01, ***p<0.001).
For myoblast immunostaining, 40,000 cells were seeded in a 24-well plate (previously covered with collagen) with 400 μl of KMEM medium and incubated overnight. The following day the medium was changed for the DMEM Glutamax 4.5 g (Gibco) differentiation medium supplemented with 2% horse serum (Sigma); penicillin (100 U/ml) and streptomycin (100 mg/ml) [1% P/S; Gibco], gentamicin (50 μg/ml; Sigma) and insulin (10 μg/ml; Sigma). […] The cells were incubated for 72 h with the compounds and fixed in 4% paraformaldehyde for 10 minutes. All cell cultures were incubated at 37° C. with 5% CO2.
Nuclei were stained with DAPI. […]

[3] = test system: delta 7 SMA mice; test: NMJ innervation of quadriceps muscles in delta 7 SMA mice; assay type: in vivo; conditions: mean ± SEM, sham 33.75±1.31%
[4] = test system: SMN2 FL transcript; test: qPCR quantification of SMN2 full length (FL) transcript in SMA fibroblasts; assay type: cell-based, human; design: key to SMN2 FL isoform levels: relative expression (2^-ΔΔCt), normalized to reference gene; conditions: for SMN2 FL isoform levels: 48 hours, GM03813 fibroblasts, normalized to GAPDH, each of 3 samples
Procedure: as §1, §2, §3, §4, §5, §6

[5] = test system: SMA Δ7 mice; test: Body weight and behavioral motor tests in SMA Δ7 mice; assay type: in vivo
Procedure: FIG. 4. Effect of Haloperidol treatment on weight and motor performances of SMN Δ7 mice. […] VHL (vehicle, 0.9% saline solution with 2% DMSO) n=8, HALO (haloperidol) n=5. Results are expressed as mean±SEM (two-way ANOVA, * p≤0.05; ** p≤0.01; *** p≤0.001; **** p≤0.0001).
(§7) The efficacy of Haloperidol was then tested (University of Turin, Boido et al.) in SMA Δ7 mice (purchased from Jackson Laboratory, Maine, USA; stock number 005025). This triple mutant mouse harbors two transgenic alleles and a single targeted mutant. The Tg(SMN2*delta7)4299Ahmb allele consists of a SMN cDNA lacking exon 7 whereas the Tg(SMN2)89Ahmb allele consists of the entire human SMN2 gene. […] At birth, triple mutants are noticeably smaller than normal littermates; by day 5, signs of muscle weakness appear and become progressively more pronounced over the following week as the mice display an abnormal gait, shakiness in the hind limbs and a tendency to fall over. Mean survival is approximately 13 days.
(§8) Treated SMA mice subcutaneously received 0.5 mg/Kg Haloperidol, dissolved in 2% DMSO in saline solution (HALO group), whereas control mice received an equal amount of saline solution with 2% DMSO (VHL group). Haloperidol or saline solution were daily administered, from P2 (postnatal day 2) to P12 (day of sacrifice).
During the whole period, the animals underwent a number of behavioral motor tests: tail suspension test, righting reflex, hindlimb suspension test, negative geotaxis (El-Khodor et al. 2008, Boido et al. 2018). Mice were evaluated daily starting from P2 for body weight and behavioral performances: • Tail suspension test (self-clasping): pups were suspended by the tail for 15 s, and their hind-limb posture was scored in a scale from 4 (normal) to 0 (clasping); • Righting reflex: pups were placed on their backs on a flat surface; their success or failure to reposition themselves dorsal side up was assessed over a 30 s period; • Negative geotaxis test: starting from P4, pups we placed on an inclined grid with the mouse head facing down (cut off: max 60 s).

[6] = test system: SMA motoneurons derived from hiPSCs; test: Survival rate of hiPSC-derived SMA motoneurons (ISL1-positive cells); assay type: cell-based, human; conditions: 10 days of treatment
Procedure: (B) SMA MNs survival rate analysis after 10 days of treatment at a range of concentrations. […] Kenpaullone (Ken) at 10 μM was used as as positive control in those experiments.
For spinal motor neurons (MNs) differentiation from hiPSCs, we used a previously reported protocol [Maury et al., 2015]. HiPSC were incubated in suspension in a neural induction medium containing DMEM/F12 and Neurobasal medium supplemented with B27 (Life Technologies), N2 Supplement (Life Technologies), Pen-Strep 0.1%, β-Mercaptoethanol (β-ME) 0.1% (Life Technologies), Ascorbic Acid (0.5 μM, Sigma-Aldrich), Chir99021 (3 μM, Stemgent), SB431542 (20 μM, Tocris), LDN 193189 (0.2 μM, Stemgent) and Y-27632 (10 μM, Stemcell) at a density of 0.2×10^6 cells/ml in T25 flask or 0.25×10^6 cells/ml in spinner flask. After 2 days, caudalization of the neural progenitors was obtained by addition of retinoic acid (RA 0.1 μM) and smoothened agonist (SAG, 0.5 μM). After 1 week in suspension, brain-derived neurotrophic factor (BDNF, 10 ng/ml), glial-derived neurotrophic factor (GDNF, 10 ng/ml), and N-[N-(3,5-Difluorophenacetyl)-L-alanyl]-S-phenylglycine t-butyl ester (DAPT, 10 nM) were added in the medium without SB431542 and LDN193189. Between day 10 and 14, MN progenitors are converted into MNs. […]
The survival of MNs was determined by quantifying the number of ISL1-positive cells in each condition.

[7] = test system: SMN protein; test: SMN protein levels by Western blotting in fibroblasts derived from SMA type II patients; assay type: cell-based, human; conditions: 72 h, compared to 0.5% DMSO, single samples
Procedure: as §1, §2
Fibroblasts derived from SMA type Il patients were incubated with haloperidol at three concentrations for 72 h. 10 μg of protein extracted from cells treated with haloperidol were separated by electrophoresis with acrylamide/bis-acrylamide gels SDS-PAGE with the Mini-protean Electrophoresis System (Bio-Rad). After electrophoresis was carried out, the proteins were transferred to a nitrocellulose membrane (GE Healthcare) using a semi-dry electro-transfer system (Bio-Rad) for one hour with a constant voltage of 15 V. The membranes were incubated with a blocking solution (5% skim milk in PBST, 1× PBS, 0.1% Tween 20) for at least 1 h at room temperature. […]
Chemiluminescence was detected using SuperSignal West Pico Sensitivity Substrate (Pierce) and acquired with ImageQuant LAS 4000 (GE Healthcare). […] Statistical significance was calculated using the Student's t-test (* p<0.05, ** p<0.01, *** p<0.001).

[8] = test system: co-culture of SMA type I motoneurons and SMA type I myoblasts; test: Motoneurons and myoblasts co-culture (MN survival, myotube area); assay type: cell-based, human; conditions: treatment every 3 days for 7 days, versus non-treated controls
Text: SMA type I (SMA) or healthy motoneurons (MN) derived from induced pluripotent stem cells were co-cultured with SMA type I or healthy myoblasts differentiated into myotubes. […] (B) Analysis of SMA myotubes area compared to the same controls as above. […] Myotubes were marked using MF20 marker (dark green), MNs were marked with ISL1 (red), acetylcholine receptors were marked with AChR (light green) and cell nuclei were stained with Hoechst (blue).
Primary cells were isolated from skeletal muscle as described previously (Chaouch et al. 2009). These cells were expanded and differentiated as previously described. Briefly, primary and immortalized myoblasts were expanded in a mix of 199 medium/Dulbecco modified Eagles minimal essential medium (1:4 ratio) supplemented with 20% fetal bovine serum (FBS), 25 μg/mL fetuin, 0.5 ng/ml basic fibroblast growth factor, 5 ng/ml epidermal growth factor, 5 μg/mL insulin. Cells were then cultivated in a growth medium consisting of DMEM-F12 glutamax (Life Technologies) supplemented with 20% FBS (Sigma-Aldrich) and 0.1% penicillin/steptomycin (Life Technologies). Myogenic differentiation was induced by switching growth medium to DMEM supplemented with 2% horse serum (Life Technologies).
For co-culture, spinal MNs must be differentiated from hiPSC as described previously, but the embryoid bodies are dissociated at day 14 of differentiation and frozen. […]

[9] = test system: SMN; test: SMN expression by Western Blot in tissues of SMA Δ7 mice at P12; assay type: in vivo; conditions: P12, 0.5 mg/Kg s.c. daily
Procedure: FIG. 5. Analysis of SMN expression by Western Blot.
as §7, §8
At P12, Halo and VHL animals were sacrificed, and fresh spinal cords and some skeletal muscles (diaphragm, quadriceps, and gastrocnemius) were rapidly dissected. We then verified the effect of Haloperidol on SMN expression on these samples. Tissues were homogenized on ice using a pestle homogenizer in radioimmunoprecipitation assay buffer (RIPA lysis buffer) (Merck Life Sciences) supplemented with 1 mM PMSF, 1 mM DTT, 2 mM sodium orthovanadate (ThermoFisher Scientific) and 1× cOmplete™ Protease Inhibitor Cocktail (Merck Life Sciences). Sample homogenates were incubated on ice for 20 min before being centrifuged for the insoluble material separation at 14,000×g for 20 min at 4° C. Total protein concentration was assayed on supernatants using Bradford reagent (Bio-Rad). Protein denaturation was performed with NuPAGER LDS Sample Buffer supplemented with NuPAGE® Sample Reducing Agent (ThermoFisher Scientific), by heating at 95° C. for 5 min. SDS-PAGE and transfer were performed on 4-20% Mini-PROTEAN® TGX™ Precast Protein Gels and Trans-Blot® Turbo™ mini nitrocellulose membranes using a Trans-Blot® Turbo™ transfer System (Bio-Rad), respectively. Nonspecific binding sites were blocked using 5% nonfat dried milk in PBS-0.2% Tween-20 (Merck Life Sciences) (PBS-T) for 1 h at RT under shaking. […] Immunolabeling was detected with Clarity™ Western ECL Blotting Substrates (Bio-Rad) using the ChemiDoc™ imaging system (Bio-Rad). Densitometric quantitation of bands was performed with Fiji (Image J, NIH).

[10] = test system: delta 7 SMA mice; test: Muscular fiber morphology of quadriceps in delta 7 SMA mice; assay type: in vivo; conditions: P12, 10 days at 0.5 mg/kg, versus sham
Procedure: FIG. 9. The effect of haloperidol on muscular fiber morphology in the skeletal muscles of delta 7 mice. Comparison of quadriceps fiber morphology between sham (0.9% saline solution with 2% DMSO) and haloperidol-treated delta 7 SMA mice at P12. The measurements of the muscle fiber area (A), perimeter (B), and maximum and minimum Feret's diameter of muscle fibers (C). At least 100 fibers were analyzed from each animal; the results are shown as the averages obtained from the individual animals.
We first performed morphological analyses of the H/E-stained quadriceps muscles from mice at postnatal day 12 (P12) after 10 days of treatment with haloperidol at 0.5 mg/kg and compared it to mice treated with sham. Specifically, for the morphological analysis of quadriceps skeletal muscle sections were stained with H/E, as previously described (Valsecchi et al. (2015); Rindt et al. (2015)). To morphologically evaluate mean fiber area, perimeter, minimum and maximum Feret's diameter, more than 100 fibers for each animal were drawn with Neurolucida software (MicroBrightField Inc.) and a computer-assisted microscope (Nikon Eclipse E600 microscope). Data were obtained by the associated data analysis software NeuroExplorer (MicroBrightField): we then averaged the means obtained from single animals. Images of skeletal muscles fibers were acquired with Zeiss Axioscan Z.1 digital slide scanner microscope (Carl Zeiss AG).

[11] = 0.5 mg/Kg subcutaneously daily P2 to P12, versus VHL

O=C(CCCN1CCC(O)(c2ccc(Cl)cc2)CC1)c1ccc(F)cc1 [haloperidol]
SMN2 Δ7 isoform levels ([1]; 10 μM): 0.90 and 0.89 | SMN2 Δ7 isoform levels ([1]; 25 μM): 1.00 and 1.06 and 1.04 | SMN2 Δ7 isoform levels ([1]; 37.5 μM): 0.96 and 1.01 and 1.03 | SMN2 Δ7 isoform levels ([1]; 50 μM): 1.89 and 1.23 | fusion index ([2]; 2.5 μM): 66.7% | denervated endplates [3]: 9.50±1.50% | SMN2 FL isoform levels ([4]; 10 μM): 1.10 and 1.03 and 1.06 | SMN2 FL isoform levels ([4]; 25 μM): 1.15 and 1.37 and 1.07 | SMN2 FL isoform levels ([4]; 37.5 μM): 1.32 and 1.47 and 1.51 | SMN2 FL isoform levels ([4]; 50 μM): 2.54 and 2.11 and 2.33 | amount of FL SMN2 transcript ([4]; at the highest concentration): doubled | body weight [5, 11]: significant weight increase | negative geotaxis test [5, 11]: improved motor performances | righting reflex test [5, 11]: improved motor performances | tail suspension test [5, 11]: improved motor performances | side effects (behavioral changes or sedation phenotypes) ([5]; murine SMA model, haloperidol administration): not associated with any conspicuously deleterious or undesirable side effects | SMA motoneurons survival rate ([6]; 0.32 μM): almost completely rescue | SMA motoneurons survival rate compared with positive control ([6]; versus kenpaullone at 10 μM): more efficient than the positive control kenpaullone | SMN protein levels ([7]; 25 μM): 1.132 and 1.751 and 1.745 | SMN protein levels ([7]; 37.5 μM): 2.265 and 2.211 and 2.469 | SMN protein levels ([7]; 50 μM): 2.413 and 2.453 and 2.614 | area of myotubes in co-culture [8]: increases the area of myotubes | survival rate of SMA MNs in co-culture [8]: increases the survival rate of SMA MNs | SMN expression increase compared to VHL ([9]; diaphragm): 23% | SMN expression increase compared to VHL ([9]; gastrocnemius): 102% | SMN expression increase compared to VHL ([9]; quadriceps): 123% | SMN expression increase compared to VHL ([9]; spinal cord): 58% | increase in Max Feret's diameter [10]: +40% | increase in fiber area [10]: +104% | increase in fiber perimeter [10]: +43% | increase in min Feret's diameter [10]: +49%

Cc1cn2nc(-c3cc(=O)n4cc(N5CCNC6(CC6)C5)ccc4n3)cc(C)c2n1 [risdiplam]
fusion index ([2]; 1 μM (positive control)): 66.7%
